According to patent publication US20240285730A1, “COMPOSITIONS AND METHODS FOR THE TREATMENT OF GRAFT VERSUS HOST DISEASE” (VectivBio AG, priority 2021, published 2024):
“Also recorded” adds a separate entry of the source. Square brackets hold non-standard residues; d marks the D form. Peptide text beside a SMILES is read from it. ξ: configuration not given here. Ile(3ξ) = CCC(C)[C@H](N)C(=O)O; Thr(3ξ) = CC(O)[C@H](N)C(=O)O; Nle = CCCC[C@H](N)C(=O)O

Assays:
[1] = system: cytarabine-induced toxicity; assay: Apraglutide dose-response study with cytarabine chemotherapy; format: in vivo, BALB/cJ female mice; conditions: for polymorphonuclear (PMN) cell count: cytarabine alone or combined with hGLP-2 or apraglutide
Method: The apraglutide dose-dependent impact on the immunosuppressive effect of cytarabine was evaluated. The effect of cytarabine treatment on polymorphonuclear (PMN) cell count was determined (FIG. 20). […] In a separate study during which animals treated with cytarabine alone or in combination with apraglutide initiated before cytarabine (Days-4 to +12) were allowed to survive for 4 additional weeks.

[2] = system: human leukemia cells; conditions: vs vehicle
Method: In a first experiment, cytarabine's anti-tumor effects were assessed in leukemic NOD/SCID mice (FIG. 11a). Apraglutide or vehicle was administered on Days −4 to 4. Cytarabine or vehicle was administered on Days 0-4. Bone marrow and spleen samples were collected on Day 7 and percentage of hCD45+ cells determined.

[3] = system: fecal microbiota (Bacteroidetes, Firmicutes); assay: Fecal microbiota composition during cytarabine chemotherapy (16S taxonomical meta-sequencing); format: in vivo, Balb/c mice; conditions: for changes in the composition of bacterial species (Bacteroidetes, Firmicutes): Days 0 to 18
[4] = system: WBC, NEU and LYMPH; assay: Melphalan-induced immunosuppression (WBC, NEU, LYMPH); format: in vivo, Balb/c mice
Method: In a third experiment, the effect of apraglutide on melphalan-induced immunosuppression was assessed (FIG. 13). Three groups of Balb/c mice were included: (A) vehicle; (B) melphalan on Day 9; (C) melphalan on Day 9, apraglutide pre-treatment on Days 1, 3, 5, 7 and continued as co-administration on Days 9, 11, and 13. WBC, NEU and LYMPH were assessed.

[5] = system: acute gastrointestinal GvHD mouse model; assay: Acute GvHD mouse model, first experiment (8.5 Gy irradiation + allogeneic bone marrow/spleen cell transplant); format: in vivo, BALB/cJ male mice
Method: Mouse #3 (Group A), #13 (Group B) and #20 (Group B) were administered the cells by subcutaneous injection rather than intravenously. Mouse #5 (Group B) and #10 (Group B) received half the cells by intravenous injection and half by subcutaneous injection.
Various histological parameters of the jejunum were also measured, including single cell necrosis levels, necrosis of all crypts, shortening of villi, cryptal hyperplasia (regenerative), cell infiltrate, and cryptal abscess. These histological parameters were graded on a standard histological grading system (1 to 3). […] These indicate that the administration of apraglutide has a protective effective against jejunal mucosal damages induced by irradiation and GvHD.

[6] = system: acute GVHD-induced intestinal damage; assay: TBI-induced intestinal damage with allogeneic transplantation (Example 2, second experiment)
Method: In a second experiment, TBI-induced intestinal damaged BALB/cJ mice received allogeneic transplantation and were treated with apraglutide (3.3 mg/kg) or vehicle on Days −9, −7, −5, −3-1, +1, +3, +5, +7. Intestinal damage indicative of GvHD (histological changes, length, hemorrhage, inflammation), body weight, and survival were assessed.

[7] = system: chemotherapy-induced gastrointestinal (GI) damage; assay: Chemotherapy-induced (cytarabine or melphalan) intestinal damage in mice; format: in vivo, Balb/c mice
Method: In a first experiment, 4 groups of Balb/c mice: (A) vehicle only; (B) cytarabine on Days 5-9, no apraglutide given; (C) cytarabine on Days 5-9; concomitant apraglutide on Days 5-18; (D) cytarabine on Days 5-9; pre-treatment apraglutide on Days 1, 3, and continued as concomitant treatment on Days 5, 8, 11, 14, and 17. Treatment groups were dosed with 30 mg/kg cytarabine and/or apraglutide 3.3 mg/kg.
In a second experiment, 3 treatment groups of Balb/c mice: (A) vehicle only; (B) melphalan on Day 9, no apraglutide; (C) melphalan on Day 9; pre-treatment apraglutide on Days 1, 3, 5, 7 and continued as concomitant treatment on Days 9, 11, and 13.
In both models, mice that received vehicle without any treatment served as controls. Intestinal tissue histology, body weight, survival, and plasma citrulline, a marker of total mucosal mass and intestinal growth, was assessed in both models.

[8] = system: acute gastrointestinal GvHD mouse model; assay: Acute GvHD mouse model, second experiment (7.0 Gy irradiation + allogeneic transplant)
Method: In a second experiment BALB/cJ male mice were separated into three groups, Group A, Group B and Group C. Groups A and B consisted of 10 mice and Group C consisted of 5 mice.
Mice in Group A received subcutaneous injections of apraglutide in an amount of 3 mg/kg/mouse (administered in 300 μl of vehicle), every second day from Day −9 to Day +7 (Days: −9, −7, −5, −3-1, +1, +3, +5, +7).
Mice in Group B received subcutaneous injections of 300 μl of vehicle control every second day starting from Day −9 to Day +7 (Days: −9, −7, −5, −3−1, +1, +3, +5, +7).
Mice in Group C received subcutaneous injections of 300 μl of vehicle control every second day starting from Day −9 to Day +7 (Days: −9, −7, −5, −3−1, +1, +3, +5, +7).
On Day −1 of the experiment, all mice in Groups A and B were irradiated with 7.0 Gy using an linac x-ray source. Group C was not irradiated but were injected with the vehicle only.
On Day 0 of the experiment, bone marrow and T cells from C57BL/6J mice were collected, prepared and transplanted into the mice of Group A and Group B. Each mouse in Group A and Group B was intravenously injected with 10 million bone marrows cells extracted from the femurs of the C57BL/6J mice and 2.5 million spleen cells extracted from the C57BL/6J mice.
Morbidity, mortality, body weight, clinical signs (diarrhea, appearance and behavior), length of intestinal segments, and histopathology of the intestine, skin, spleen and liver were monitored in the mice of Group A, Group B and Group C. All mice were sacrificed at Day +14 at the latest.

[9] = system: blood cell count; assay: Cytarabine-induced immunosuppression (blood cell counts); format: in vivo, Balb/c mice; conditions: 4 weeks after the end of treatment
Method: In a second experiment, apraglutide's effect on the ability of cytarabine to induce immunosuppression was assessed. The experiment included three groups of Balb/c mice: (A) vehicle; (B) cytarabine on Days 5-9; (C) cytarabine on Days 5-9, concomitant apraglutide on Days 5-18. RBC, platelets, WBC, NEU and LYMPH were assessed. A cohort was allowed to survive for 4 weeks to assess the effect of apraglutide on immunosuppression recovery (FIG. 12).

[10] = system: human peripheral blood mononuclear cell (hPBMC) engraftment; assay: Engraftment of human PBMC in total-body-irradiated NOG mice; format: in vivo, immunodeficient (NOG) mice
Method: Engraftment rate was determined through CD45 expression in blood, bone marrow and spleen.

[11] = apraglutide 3 mg/kg s.c., histological grading 1 to 3, vs vehicle
[12] = apraglutide 3.3 mg/kg vs vehicle

With Nc1ccn([C@@H]2O[C@H](CO)[C@@H](O)[C@@H]2O)c(=O)n1 [Cytarabine only, Cytarabine] the “polymorphonuclear (PMN) cell count” value [1] was “depleted PMN counts”, the “reduction in human leukemia cells” value [2] was “significantly greater than vehicle” and the “Bacteroidetes, mean (Table 1b)” value ([3]; Day 0) was 18.3. For the same molecule, the “Firmicutes, mean (Table 1b)” value ([3]; Day 0) was 78.7, the “unclassified phylum, mean (Table 1b)” value ([3]; Day 0) was 1.3 and the “Bacteroidetes, mean (Table 1b)” value ([3]; Day 18) was 48.7. The “Firmicutes, mean (Table 1b)” value ([3]; Day 18) was 49.6, the “unclassified phylum, mean (Table 1b)” value ([3]; Day 18) was 1.2 and the “changes in the composition of bacterial species (Bacteroidetes, Firmicutes)” value [3] was “increasing the Bacteroidetes population and decreasing the proportion of Firmicutes bacteria”.
For N[C@@H](Cc1ccc(N(CCCl)CCCl)cc1)C(=O)O [melphalan, Melphalan, reference compound], the “WBC and LYMPH vs vehicle” value ([4]; melphalan on Day 9, with or without apraglutide) was “severe decreases”.
In the case of CCCC[C@H](NC(=O)[C@H](CCC(=O)O)NC(=O)[C@H](CC(=O)O)NC(=O)[C@H](CO)NC(=O)[C@H](Cc1ccccc1)NC(=O)[C@H](CO)NC(=O)CNC(=O)[C@H](CC(=O)O)NC(=O)CNC(=O)[C@@H](N)Cc1c[nH]cn1)C(=O)N[C@H](Cc1ccccc1)C(=O)N[C@H](C(=O)N[C@H](C(=O)N[C@@H](CC(C)C)C(=O)N[C@@H](CC(=O)O)C(=O)N[C@@H](CC(C)C)C(=O)N[C@@H](CC(C)C)C(=O)N[C@@H](C)C(=O)N[C@@H](C)C(=O)N[C@@H](CCCNC(=N)N)C(=O)N[C@@H](CC(=O)O)C(=O)N[C@@H](Cc1ccccc1)C(=O)N[C@H](C(=O)N[C@@H](CC(N)=O)C(=O)N[C@@H](Cc1c[nH]c2ccccc12)C(=O)N[C@@H](CC(C)C)C(=O)N[C@H](C(=O)N[C@@H](CCC(N)=O)C(=O)N[C@H](C(=O)N[C@@H](CCCCN)C(=O)N[C@H](C(=O)N[C@H](C(=O)N[C@@H](CC(=O)O)C(N)=O)C(C)O)C(C)CC)C(C)O)C(C)CC)C(C)CC)C(C)CC)C(C)O (stereo partly drawn) [apraglutide] (H-HGDGSFSDE[Nle][dF][Thr(3ξ)][Ile(3ξ)]LDLLAARDF[Ile(3ξ)]NWL[Ile(3ξ)]Q[Thr(3ξ)]K[Ile(3ξ)][Thr(3ξ)]D-NH2), the “impact on cytarabine- or melphalan-induced immunosuppression” value ([4]; combination with apraglutide) is reported as “no negative impact”, the colon length ([5]; 8.5 Gy + C57BL/6J bone marrow/spleen cells, apraglutide 3 mg/kg s.c. every second day Day −9 to +7, vs vehicle group) is reported as “increased colon lengths that were nearly the same as the control mice” and the “mean severity score of the regenerative cryptal hyperplasia (jejunum)” value [5, 11] is reported as “slightly increased”. For the same molecule, the “overall mean severity score of mucosal degenerative/inflammatory changes in the jejunum” value [5, 11] was “slightly decreased”, the lymphocyte engraftment ([6]; apraglutide 3.3 mg/kg Days −9 to +7) was “successfully achieved” and the median survival [6, 12] was “similar”. The “post-mortem histological examination, mucosal degenerative/inflammatory changes” value [6, 12] was “less mucosal degenerative/inflammatory changes”, the weight loss [6, 12] was “similar” and the overall survival ([6]; on Day +9, apraglutide 3.3 mg/kg) was 40%. The “degenerative intestinal changes (villi and crypt atrophy) caused by cytarabine or melphalan” value ([7]; apraglutide co-administration, 3.3 mg/kg) was “reduced”, the chemotherapy-induced weight loss ([7]; apraglutide with cytarabine or melphalan) was “attenuated” and the overall survival ([7]; vs vehicle-only or chemotherapy-only groups) was “improved overall survival”. The “weight of duodenum, ileum and jejunum” value ([7]; with apraglutide) was “increased in weight”, the “improvement in animal survival vs cytarabine alone” value ([1]; all apraglutide-treated groups) was “statistically significant” and the plasma citrulline concentrations ([1]; apraglutide 0.33 mg/kg and 1.1 mg/kg with cytarabine vs cytarabine alone) was “improvement in citrulline concentrations”. For the same molecule, the “polymorphonuclear (PMN) cell count” value [1] was “not reversed”, the initial weight loss ([1]; cytarabine combined with 0.11 mg/kg apraglutide or hGLP-2 (0.60 mg/kg twice daily)) was “did not decrease initial weight loss” and the “changes in the composition of bacterial species (Bacteroidetes, Firmicutes)” value [3] was “the effect was reduced”. The “mice survived past Day 9” value ([8]; 7.0 Gy + allogeneic transplant, apraglutide 3 mg/kg s.c.) was 40%, the median survival ([8]; 7.0 Gy + allogeneic transplant, apraglutide 3 mg/kg s.c. Day −9 to +7) was 9 days and the “body weight of surviving mice beyond Day 9” value ([8]; Group A) was “regained body weight”. The “length of the small intestine” value ([8]; Groups A, B and C compared) was “no differences were observed”, the “weight loss, Group A vs Group B” value ([8]; apraglutide 3 mg/kg s.c. vs vehicle, both TBI/BMT) was “No significant difference” and the “animal survival (Kaplan-Meier)” value ([8]; apraglutide initiated before TBI/BMT vs TBI/BMT animals) was “enhanced survival; also recorded: significant difference relative to TBI/BMT animals”. The “mice with intestinal pathological score of 0” value ([8]; score 0 least severe to 4 most severe, Group A, 10 mice) was “four out of out of ten”, the “recovery of hematological parameters” value [9] was “did not impact” and the “engraftment rate in blood, spleen and bone marrow (CD45 expression)” value ([10]; apraglutide 3.3 mg/kg Days −6 to 18, TBI 1.44 Gy, hPBMC 3×10^7) was “not affected”. For the same molecule, the “hCD45+ cells infiltration in the intestinal wall” value ([10]; apraglutide vs vehicle) was “no difference”.
